Measurements reported in PMC10987503, “Biomimetic NIR-II fluorescent proteins created from chemogenic protein-seeking dyes for multicolor deep-tissue bioimaging” (Nature Communications, 2024).

Experiments:
[1] = target: T1, human serum albumin (HSA) (Homo sapiens, UniProt P02768); assay: BLI; also HRMS, SDS-PAGE and proteomics of the covalent adduct; type: binding
T1 construct: gene ALB; full HSA; recombinant domain III (DIII) also measured

[2] = target: T1, human serum albumin (HSA); assay: BLI; also HRMS ([…] covalent binding) and SDS-PAGE
[3] = target: T1, human serum albumin (HSA); assay: BLI; also HRMS ([…] covalent binding) and SDS-PAGE; remark: listed apart in the source

T1 sequence (P02768 25-609): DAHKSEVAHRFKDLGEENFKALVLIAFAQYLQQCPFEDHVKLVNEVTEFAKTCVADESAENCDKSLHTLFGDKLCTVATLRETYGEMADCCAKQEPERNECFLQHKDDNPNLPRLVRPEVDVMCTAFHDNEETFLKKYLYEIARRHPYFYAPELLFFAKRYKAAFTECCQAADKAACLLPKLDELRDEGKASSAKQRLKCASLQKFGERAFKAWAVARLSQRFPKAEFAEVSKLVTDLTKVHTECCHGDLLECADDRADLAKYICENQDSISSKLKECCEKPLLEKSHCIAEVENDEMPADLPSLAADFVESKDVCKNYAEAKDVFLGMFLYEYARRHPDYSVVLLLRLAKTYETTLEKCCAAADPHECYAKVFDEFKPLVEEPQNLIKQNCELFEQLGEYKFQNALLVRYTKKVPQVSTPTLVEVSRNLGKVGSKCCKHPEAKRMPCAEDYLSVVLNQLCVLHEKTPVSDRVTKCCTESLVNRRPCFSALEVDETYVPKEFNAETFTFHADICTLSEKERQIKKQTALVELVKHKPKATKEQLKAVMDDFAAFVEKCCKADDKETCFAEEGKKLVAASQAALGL

With `O=C(O)CCCCCn1/c(=C/C=C2\CCCC(/C=C/C3=[N+](CCCCCC(=O)O)c4cccc5cccc3c45)=C2Cl)c2cccc3cccc1c32` [CO-1080] as the molecule, how does the Kd [1] read?
Its Kd is roughly 2.13 nM.

How did the Kd [2] turn out when `CCn1/c(=C/C=C2\CCCC(/C=C/C3=[N+](CC)c4cccc5cccc3c45)=C2Cl)c2cccc3cccc1c32` [Et-1080] was run?
Its Kd is roughly 14.5 nM.

For `O=S(=O)(O)CCCCn1/c(=C/C=C2\CCCC(/C=C/C3=[N+](CCCCS(=O)(=O)O)c4cccc5cccc3c45)=C2Cl)c2cccc3cccc1c32` [FD-1080], which Kd [3] is on record?
The Kd was roughly 82.6 nM.
